In a melting point compilation (Tetko et al.):

melting point [°C]	SMILES
79.5	CC(C)(C)c1ccc(C(C)(C)C)cc1
-87	COCC(C)OC(C)=O (configuration not stated)
197	O=C(Oc1ccccc1)c1ccc(C(=O)Oc2ccccc2)cc1
73 to 74	N#Cc1cccc(N2CCCC2)n1
122	Clc1cc(Cl)c2nsnc2c1Cl
233	CC(=O)Nc1ccc(-c2ccc(N(Nc3ccccc3)C(C)=O)cc2)cc1
300	Nc1oc2ccc(Cl)cc2c(=O)c1C=O
228	Cc1c(/N=C/c2cc(Br)cc(Br)c2O)c(=O)n(-c2ccccc2)n1C
126	O=C(O)c1ccccc1C1c2ccc(O)cc2Oc2cc(O)ccc21
164 to 165	O=C(C=Cc1ccc(-c2ccc(Br)cc2)o1)c1ccco1
153	COc1ccc(C2Nn3c(nnc3-c3ccc([N+](=O)[O-])cc3)S2)cc1 (configuration not stated)
120	COc1cc(CC(=O)O)cc(OC)c1OC
131 to 132	Cn1cnc(C(=O)Oc2c(F)c(F)c(F)c(F)c2F)c1
-12	C=C/C=C/C=C
95 to 98	CCCSc1sc(C(=O)OC)c2c1C(=O)CC(C)(C)C2
79	OCC1(O)COC(O)(CO)CO1 (configuration not stated)
102	CC12CCCC1C1CCC3CC(=O)CCC3(C)C1CC2 (configuration not stated)
-78.8	CCCCCOC(=O)CCCC
146	NC(=O)c1ccc(F)c(Cl)c1
196	Cc1ccc(NC(=O)C(C(F)(F)F)C(F)(F)F)cc1
91	O=C1c2ccccc2CC2C=Cc3ccccc3N12 (configuration not stated)
267 to 269	Cc1noc(-c2ccc(C(=O)O)cc2)n1
79	COC(=O)c1ccsc1N
121	O=C(CCC(=O)Oc1ccccc1)Oc1ccccc1
128	CC12CCC(C(C(=O)O)C1=O)C2(C)C (configuration not stated)
-54	CC1CCCC1C (configuration not stated)
-8	C=CC(=O)N1CCOCC1

melting point [°C]	SMILES
126 to 127	C=C1C(=O)C23C(OC)CC4C5(C)CCCC4(COC5=O)C2C(OC(C)=O)CC1C3O (configuration not stated)
145	Nc1c(Cl)ncnc1Cl
-119	CCCC(C)CC (configuration not stated)
113 to 115	CC(C)Nc1ccc(C#N)cc1[N+](=O)[O-]
157	OC(c1ccccc1)P(c1ccccc1)c1ccccc1 (configuration not stated)
177	CC(CCC(=O)O)C1CCC2C3CCC4CC(O)CCC4(C)C3CC(O)C12C (configuration not stated)
100	C=CC(=O)Oc1c(Br)cc(Cl)c2cccnc12
136	Ic1ccc(I)c(I)c1I
213 to 214	O=[N+]([O-])c1ccc2[nH]c3c(c2c1)CCN(Cc1ccccc1)C3
69 to 71	CN(C)c1ccc(N=C=S)cc1
-70	FC1(F)C(Cl)=C(Cl)C(F)(F)C(F)(F)C1(F)F
226	NC(=O)Nc1ccc(Br)cc1
133	O=C(OC(=O)c1ccncc1)c1ccncc1
77	O=C1CC(c2ccccc2)Oc2ccccc21 (configuration not stated)
101	Cc1ccc(S(=O)(=O)n2cccc2)cc1
211 to 213	CCOC(=O)c1cnc2nc(SC)nn2c1N
0.5	CCCCCCCCSCCCCCCCC
98	CC(=O)OCC1OC(c2nn[nH]n2)C(N2C(=O)c3ccccc3C2=O)C(OC(C)=O)C1OC(C)=O (configuration not stated)
148	NC(=O)C1CCNCC1
99	CCOC(=O)C1=NN(c2ccc(Cl)cc2Cl)C(=O)C1C(Cl)C1(Cl)C(=O)N(c2ccc(Cl)cc2Cl)N=C1C(=O)OCC (configuration not stated)
255	CC(=O)Nc1cc(N=Nc2ccccc2)c(C)c(NC(C)=O)c1
103 to 106	N#CC1(N2CCCCC2)CCN(Cc2ccccc2)CC1
-40	CCCC(=O)N(C)C
101 to 105	OCc1ccc(-c2ccccc2)cc1
210	O=C(O)c1ccc2[nH]ccc2c1
228 to 230	C[C@]12CC(=O)C[C@@]1(C)CC(=O)C2
110	O=C(O)C(=O)c1ccc([N+](=O)[O-])cc1

melting point [°C]	SMILES
-78	CCCCCCOC(=O)CCC
68	O=S(=O)(Cl)c1cnc(Cl)c(Br)c1
51	COC(=O)c1ccc(C)c([N+](=O)[O-])c1
141	COc1cc2c(cc1OC)C(=O)C2
103	COc1cc(CC(=O)O)cc(OC)c1
110	CCN(CC)C(=O)Nc1ccc(OCC(O)CNC(C)(C)C)c(C(C)=O)c1 (configuration not stated)
209	O=C(O)c1c(Cl)c(Cl)c(Cl)c(Cl)c1Cl
41.5 to 43.5	NCc1ccc(OC2CCOCC2)cc1
169 to 173	O=C(O)c1ccc(F)cc1Br
220 to 221	Cc1ccc(Cc2ccc(CP(=O)(c3ccccc3)c3ccccc3)o2)o1
134	NC(=O)c1ccc(F)c(F)c1
238	NNC(=O)C(=O)NC1CCCCC1
51 to 52	O=Cc1ccccc1Oc1ccccn1
193	O=[N+]([O-])c1cc([N+](=O)[O-])c(/C=C/c2ccccc2)cc1/C=C/c1ccccc1
-6	CN1CCNCC1
56 to 58	O=[N+]([O-])c1ccc(OCCCBr)cc1
180 to 182	Clc1ccc(Cc2c(N=Cc3ccccc3)n[nH]c2N=Cc2ccccc2)cc1
180	NC(=O)C[C@H](NC(=O)OCC1c2ccccc2-c2ccccc21)C(=O)O
255	NC(=S)Nc1ccc(C(=O)O)cc1
69.5	S=C=Nc1ccc(Cl)c(Cl)c1Cl
21	Cc1cc(C)c(C(C)C)cc1C
-18	CCCCCCCCC=O
104	O=C(O)c1ccccc1-n1cccc1
154 to 156	Cc1cc(-c2cc(C)n(C)n2)n[nH]1
285	CC(=O)Nc1cc(CCNC(=O)c2ccccc2)c(NC(C)=O)cc1CCNC(=O)c1ccccc1

SMILES	melting point [°C]
Nc1ccc(-c2ccc(N)c(N)c2)cc1N	176
COc1ccc2[nH]cc(CCN(C(C)C)C(C)C)c2c1	181
ClCc1noc(-c2cccs2)n1	67 to 68
O=C(Cc1ccccc1)OCc1c([N+](=O)[O-])cccc1[N+](=O)[O-]	90
CC(C)(C#N)OC1OC(CO)C(O)C(O)C1O (configuration not stated)	145
N=C(N)NC(N)=O	105
CCN(CCO)CCO	-50
CCNC1=NC(=O)C(c2ccccc2)O1 (configuration not stated)	148
CC1C2Cc3ccc(O)cc3C1(C)CCN2CC1CC1 (configuration not stated)	202
Clc1cc2oc3cc(Cl)c(Cl)c(Cl)c3c2cc1Cl	225
O=C1CN=C(c2ccccc2)c2cc([N+](=O)[O-])ccc2N1	225
C#CC1(O)CCC2C3CCC4=CC(=O)CCC4=C3C=CC21C (configuration not stated)	169
O=CC(Cl)=C(Cl)C(=O)O	127
